Source: patent US6548242B2, “Process for the sterilization of biological compositions and the product thereby” (priority 1990, dated 2003)
Where “and” joins values, the source holds several entries; their conditions need not be identical. Equal values may be shown once. Read-outs that look alike come from different tables or passages of the source.

How the values were obtained:
[1] = system: cell-free vesicular stomatitis virus (VSV); assay type: cell-based
[2] = system: bacteriophage M13; assay type: cell-based
[3] = system: cell-free vesicular stomatitis virus (VSV); conditions: cited from earlier work
[4] = system: platelets; assay: Platelet aggregation in response to collagen after treatment of platelet concentrate; assay type: cell-based; conditions: for Aggregation Response % Control / Agqregation Response % control / aggregation response to collagen: platelet conc.; for Aggregation Response % Control / Agqregation Response % control: 25 μg/ml AMT; for aggregation response to collagen: 100 μg/ml AMT, 90 min UVA; for % Untreated Control - Extent of Aggregation Response to Collagen, untreated / % Untreated Control - Rate of Aggregation Response to Collagen, untreated: flavonoid present, no AMT/UVA treatment
[5] = system: encephalomyocarditis virus (EMC); assay type: cell-based
[6] = system: RBCCs; assay: Extracellular (plasma) potassium of stored RBCCs; conditions: RBCC, 6.5 μM AlPcS4 + 44 J/cm^2 visible light + 4 mM GSH, 2 days
[7] = system: cell-associated VSV; assay type: cell-based, vesicular stomatitis virus
[8] = 25 μg/ml AMT and 90 minutes of UVA, no flavonoid
[9] = 11 mW/cm^2 UVA 30 min, quencher 2 mM
[10] = 11 mW/cm^2 UVA 30 min, quencher 10 mM
[11] = 11 mW/cm^2 UVA 60 min, quencher 2 mM
[12] = 11 mW/cm^2 UVA 90 min, quencher 2 mM
[13] = 25 μg/ml AMT and 90 minutes of UVA in presence of flavonoid, overnight storage
[14] = 7.5 mW/cm^2 UVA 30 min, quencher 2 mM
[15] = 7.5 mW/cm^2 UVA 30 min, quencher 4 mM
[16] = 7.5 mW/cm^2 UVA 30 min, quencher 10 mM
[17] = 7.5 mW/cm^2 UVA 60 min, quencher 2 mM
[18] = 7.5 mW/cm^2 UVA 60 min, quencher 4 mM
[19] = 7.5 mW/cm^2 UVA 90 min, quencher 2 mM
[20] = 7.5 mW/cm^2 UVA 90 min, quencher 4 mM
[21] = 7.5 mW/cm^2 UVA 30 min, quencher 50 mM
[22] = 7.5 mW/cm^2 UVA 60 min, quencher 10 mM
[23] = 7.5 mW/cm^2 UVA 60 min, quencher 50 mM

Cc1oc2c(C)c3oc(=O)cc(C)c3cc2c1CN [AMT, 4′-aminomethyl-4,5′,8-trimethylpsoralen]
LOG10 VIRUS KILL VSV [1]: ≧6 LOG10 | inactivation of cell-free VSV [1]: completely inactivated | LOG10 VIRUS KILL M13 [2]: 3 LOG10 and 5 LOG10 | inactivation of bacteriophage M13 [2]: at least 4 log 10 | inactivation of cell-free VSV [3]: ≥ 6.0 log10 | % Untreated Control - Extent of Aggregation Response to Collagen, treated [4, 8]: 44 % Untreated Control | % Untreated Control - Rate of Aggregation Response to Collagen, treated [4, 8]: 24 % Untreated Control | agg response ([4]; Platelet Conc., 50 μg/ml AMT + 57 J/cm^2 UVA, quencher none): ≤ 30% | Aggregation Response % Control ([4]; 7.5 mW/cm^2 UVA 60 min, no quencher): 52 % Control | Aggregation Response % Control ([4]; 7.5 mW/cm^2 UVA 90 min, no quencher): 35 % Control | Agqregation Response % control ([4]; 11 mW/cm^2 UVA 30 min, no quencher): 75 % control | Agqregation Response % control ([4]; 11 mW/cm^2 UVA 60 min, no quencher): 52 % control | aggregation response to collagen ([4]; no quencher): no response at all

O=C1O[C@H]([C@@H](O)CO)C(O)=C1O [Ascorbate, ascorbate]
Virus Kill (log10) VSV [1]: ≧6.5 log10 | Virus Kill (log10) M13 [2]: 4.7 log10 | Virus Kill (log10) EMC [5]: ≧7.7 log10

sodium carpryl N-acetyl tryptophan [SCNAT]
Virus Kill (log10) M13 [2]: 1.6 log10

N[C@@H](Cc1c[nH]c2ccccc12)C(=O)O [Tryptophan, tryptophan]
Agqregation Response % control [4, 9]: 70 % control | Agqregation Response % control ([4]; 11 mW/cm^2 UVA 30 min, quencher 4 mM): 60 % control | Agqregation Response % control [4, 10]: 45 % control | Agqregation Response % control [4, 11]: 50 % control | Agqregation Response % control ([4]; 11 mW/cm^2 UVA 60 min, quencher 4 mM): 45 % control | Agqregation Response % control ([4]; 11 mW/cm^2 UVA 60 min, quencher 10 mM): 20 % control | Agqregation Response % control [4, 12]: 30 % control | Agqregation Response % control ([4]; 11 mW/cm^2 UVA 90 min, quencher 4 mM): 20 % control | Agqregation Response % control ([4]; 11 mW/cm^2 UVA 90 min, quencher 10 mM): 0 % control

C[C@@H]1O[C@@H](O[C@H]2[C@H](Oc3cc(O)c4c(c3)O[C@H](c3ccc(O)cc3)CC4=O)O[C@H](CO)[C@@H](O)[C@@H]2O)[C@H](O)[C@H](O)[C@H]1O [naringin]
% Untreated Control - Extent of Aggregation Response to Collagen, treated [4, 13]: 78 % Untreated Control | % Untreated Control - Rate of Aggregation Response to Collagen, treated [4, 13]: 61 % Untreated Control | % Untreated Control - Extent of Aggregation Response to Collagen, untreated ([4]; overnight storage): 90 % Untreated Control | % Untreated Control - Rate of Aggregation Response to Collagen, untreated ([4]; overnight storage): 83 % Untreated Control

aluminum phthalocyanine tetrasulfonate [AlPcS4]
plasma K+ ([6]; with γ-irradiation 25 Gy, no rutin): 75 mM | plasma K+ ([6]; without γ-irradiation): 60 mM

N[C@@H](CCC(=O)N[C@@H](CS)C(=O)NCC(=O)O)C(=O)O [Glutathione, glutathione]
Virus Inactivation (log10) Cell-Free VSV [1]: ≧6.0 log10 | Virus Kill (log10) M13 [2]: 4.4 log10 | Aggregation Response % Control [4, 14]: 80 % Control | Aggregation Response % Control [4, 15]: 80 % Control | Aggregation Response % Control [4, 16]: 75 % Control | Aggregation Response % Control [4, 17]: 60 % Control | Aggregation Response % Control [4, 18]: 55 % Control | Aggregation Response % Control [4, 19]: 40 % Control | Aggregation Response % Control [4, 20]: 25 % Control

CN(C)c1ccc2nc3ccc(=[N+](C)C)cc-3sc2c1 [M8, methylene blue]
LOG10 VIRUS KILL VSV [1]: ≧5 LOG10

O=c1cc(-c2ccccc2)oc2cc(O)cc(O)c12 [chrysin]
% Untreated Control - Extent of Aggregation Response to Collagen, treated [4, 13]: 90 % Untreated Control | % Untreated Control - Rate of Aggregation Response to Collagen, treated [4, 13]: 85 % Untreated Control | % Untreated Control - Extent of Aggregation Response to Collagen, untreated ([4]; overnight storage): 100/100 % Untreated Control | % Untreated Control - Rate of Aggregation Response to Collagen, untreated ([4]; overnight storage): 100/100 % Untreated Control

Superoxide Dismutase
Virus Inactivation (log10) Cell-Free VSV [1]: ≧6.0 log10 | Virus Kill (log10) M13 [2]: 3.9 log10 | Aggregation Response % Control ([4]; 7.5 mW/cm^2 UVA 30 min, quencher 20 μg/ml): 85 % Control | Aggregation Response % Control ([4]; 7.5 mW/cm^2 UVA 30 min, quencher 100 μg/ml): 75 % Control | Aggregation Response % Control ([4]; 7.5 mW/cm^2 UVA 60 min, quencher 20 μg/ml): 50 % Control | Aggregation Response % Control ([4]; 7.5 mW/cm^2 UVA 60 min, quencher 100 μg/ml): 45 % Control | Aggregation Response % Control ([4]; 7.5 mW/cm^2 UVA 90 min, quencher 20 μg/ml): 30 % Control

OCC(O)CO [Glycerol, glycerol]
Virus Kill (log10) M13 [2]: 6.6 log10 | Aggregation Response % Control [4, 14]: 90 % Control | Aggregation Response % Control [4, 15]: 95 % Control | Aggregation Response % Control [4, 16]: 80 % Control | Aggregation Response % Control [4, 21]: 85 % Control | Aggregation Response % Control [4, 17]: 50 % Control | Aggregation Response % Control [4, 18]: 55 % Control | Aggregation Response % Control [4, 22]: 50 % Control | Aggregation Response % Control [4, 23]: 50 % Control | Aggregation Response % Control [4, 20]: 35 % Control

Cc1c(C)c2c(c(C)c1OP(=O)(O)O)CC[C@@](C)(CCC[C@H](C)CCC[C@H](C)CCCC(C)C)O2 [α-tocopherol phosphate]
Agqregation Response % control ([4]; 11 mW/cm^2 UVA 30 min, quencher 0.5 mM): 76 % control | Agqregation Response % control ([4]; 11 mW/cm^2 UVA 30 min, quencher 1.0 mM): 75 % control | Agqregation Response % control [4, 9]: 70 % control | Agqregation Response % control ([4]; 11 mW/cm^2 UVA 60 min, quencher 0.5 mM): 55 % control | Agqregation Response % control ([4]; 11 mW/cm^2 UVA 60 min, quencher 1.0 mM): 60 % control | Agqregation Response % control [4, 11]: 50 % control | Agqregation Response % control ([4]; 11 mW/cm^2 UVA 90 min, quencher 0.5 mM): 35 % control | Agqregation Response % control ([4]; 11 mW/cm^2 UVA 90 min, quencher 1.0 mM): 40 % control | Agqregation Response % control [4, 12]: 30 % control

OC[C@@H](O)[C@@H](O)[C@H](O)[C@H](O)CO [Mannitol, mannitol]
Virus Kill (log10) M13 [2]: 6.6 log10 | Aggregation Response % Control [4, 14]: 95 % Control | Aggregation Response % Control [4, 15]: 95 % Control | Aggregation Response % Control [4, 16]: 91 % Control | Aggregation Response % Control [4, 21]: 85 % Control | Aggregation Response % Control [4, 17]: 60 % Control | Aggregation Response % Control [4, 18]: 58 % Control | Aggregation Response % Control [4, 22]: 56 % Control | Aggregation Response % Control [4, 23]: 55 % Control | Aggregation Response % Control [4, 19]: 32 % Control | Aggregation Response % Control ([4]; 7.5 mW/cm^2 UVA 90 min, quencher 50 mM): 30 % Control | aggregation response to collagen ([4]; 2 mM mannitol): no response at all

O=c1c(O)c(-c2ccc(O)c(O)c2)oc2cc(O)cc(O)c12 [quercetin]
Virus Kill (log10) VSV [1]: ≧6.5 log10 | Virus Kill (log10) M13 [2]: 5.0 log10 | inactivation of cell-associated VSV [7]: ~6 log10 | % Untreated Control - Extent of Aggregation Response to Collagen, treated [4, 13]: 98/98 % Untreated Control | % Untreated Control - Rate of Aggregation Response to Collagen, treated [4, 13]: 98/98 % Untreated Control | % Untreated Control - Extent of Aggregation Response to Collagen, untreated ([4]; overnight storage): 100/100 % Untreated Control | % Untreated Control - Rate of Aggregation Response to Collagen, untreated ([4]; overnight storage): 100/100 % Untreated Control | Virus Kill (log10) EMC [5]: ≧7.7 log10

N[C@@H](Cc1c[nH]cn1)C(=O)O [Histidine, histidine]
Virus Kill (log10) Cell-free VSV [1]: 5.1 log10 and 4.8 log10 | Virus Kill (log10) M13 [2]: 4.0 log10 | Agqregation Response % control ([4]; 11 mW/cm^2 UVA 30 min, quencher 5 mM): 75 % control | Agqregation Response % control [4, 10]: 65 % control | Agqregation Response % control ([4]; 11 mW/cm^2 UVA 60 min, quencher 5 mM): 55 % control | Agqregation Response % control ([4]; 11 mW/cm^2 UVA 90 min, quencher 5 mM): 35 % control

COc1ccc([C@@H]2CC(=O)c3c(O)cc(O[C@@H]4O[C@H](CO[C@@H]5O[C@@H](C)[C@H](O)[C@@H](O)[C@H]5O)[C@@H](O)[C@H](O)[C@H]4O)cc3O2)cc1O [hesperidin]
% Untreated Control - Extent of Aggregation Response to Collagen, treated [4, 13]: 100 % Untreated Control | % Untreated Control - Rate of Aggregation Response to Collagen, treated [4, 13]: 86 % Untreated Control | % Untreated Control - Extent of Aggregation Response to Collagen, untreated ([4]; overnight storage): 98 % Untreated Control | % Untreated Control - Rate of Aggregation Response to Collagen, untreated ([4]; overnight storage): 90 % Untreated Control
